pIC50: −log10 of the molar value. Where a name gives a salt, the structure may show the parent alone. Read-outs that look alike come from different tables or passages of the source.
Tests used:
[1] = target: Noradrenalin-Aufnahme (Rattus norvegicus, UniProt Q9WTR4); assay: Inhibition of 3H-noradrenaline uptake in rat brain synaptosomes (hippocampus); type: biochemical, Ratte; conditions: for pIC50: rat hippocampus synaptosomes, 3H-Noradrenalin ca. 10 nM, 37°C, read-out: Hemmung der Neurotransmitter-Aufnahme in Synaptosomen Noradrenalin IC50; for absolute Wirkstärke bei der Hemmung der Noradrenalin-Aufnahme: potency relative to Imipramin
Excerpt: (§1) Als Wirkungsmechanismus einer Gruppe therapeutisch vielfach genutzter Antidepressiva (z.B. tricyclische Antidepressiva) ist eine Hemmung der neuronalen Aufnahme von Transmittersubstanzen (Noradrenalin und/oder Serotonin) anzusehen. Diese Eigenschaft wird in biologischen Testmodellen zur Charakterisierung von potentiellen Antidepressiva verwendet. Es wurde folgende Methodik eingesetzt: • Hemmung der Neurotransmitter-Aufnahme in Rattenhirn-Synaptosomen
(§2) Hippocampus und Cortex aus Rattenhirn wurden präpariert und in 0,32 M Sucrose-Lösung homogenisiert. Durch differentielle Zentrifugation wurden Synaptosomen erhalten, die in Pufferlösung suspendiert wurden. Die Synaptosomen sind in der Lage, aus dem umgebenden Medium zugefügte Neurotransmittersubstanzen (z.B. Noradrenalin oder Serotonin) aktiv aufzunehmen. Dieser Vorgang ist durch Aufnahme-Hemmer konzentrationsabhängig antagonisierbar. Die Synaptosomen wurden mit den Testsubstanzen in verschiedenen Konzentrationen versetzt und anschließend mit ^3H-Noradrenalin (Hippocampus) bzw. ^3H-Serotonin (Cortex) bei 37°C inkubiert. Die Substratkonzentration betrug ca. 10 nM. Nach Stoppen der Aufnahme durch Verdünnen mit eisgekühlter Pufferlösung wurden die Synaptosomen i abzentrifugiert und die ^3H-Aktivität im Sediment gemessen. Der Blindwert wird durch Inkubation bei 0°C ermittelt.
(§3) Aus den bei verschiedenen Inhibitor-Konzentrationen gegen Kontrolle ermittelten Hemmwerten wurde durch lineare Regression nach logit-log-Transformation die mittlere Hemmkonzentration (ICso) berechnet.

[2] = target: T1, Serotonin-Aufnahme (Rattus norvegicus, UniProt P31652); assay: Inhibition of 3H-serotonin uptake in rat brain synaptosomes (cortex); type: biochemical, Ratte
T1 construct: Durch differentielle Zentrifugation wurden Synaptosomen erhalten; from tissue; host or cells: rat brain cortex synaptosomes
Excerpt: as §1, §2, §3

[3] = rat cortex synaptosomes, 3H-Serotonin ca. 10 nM, 37°C, read-out: Hemmung der Neurotransmitter-Aufnahme in Synaptosomen Serotonin IC50

Chain of Noradrenalin-Aufnahme (Q9WTR4 1-597): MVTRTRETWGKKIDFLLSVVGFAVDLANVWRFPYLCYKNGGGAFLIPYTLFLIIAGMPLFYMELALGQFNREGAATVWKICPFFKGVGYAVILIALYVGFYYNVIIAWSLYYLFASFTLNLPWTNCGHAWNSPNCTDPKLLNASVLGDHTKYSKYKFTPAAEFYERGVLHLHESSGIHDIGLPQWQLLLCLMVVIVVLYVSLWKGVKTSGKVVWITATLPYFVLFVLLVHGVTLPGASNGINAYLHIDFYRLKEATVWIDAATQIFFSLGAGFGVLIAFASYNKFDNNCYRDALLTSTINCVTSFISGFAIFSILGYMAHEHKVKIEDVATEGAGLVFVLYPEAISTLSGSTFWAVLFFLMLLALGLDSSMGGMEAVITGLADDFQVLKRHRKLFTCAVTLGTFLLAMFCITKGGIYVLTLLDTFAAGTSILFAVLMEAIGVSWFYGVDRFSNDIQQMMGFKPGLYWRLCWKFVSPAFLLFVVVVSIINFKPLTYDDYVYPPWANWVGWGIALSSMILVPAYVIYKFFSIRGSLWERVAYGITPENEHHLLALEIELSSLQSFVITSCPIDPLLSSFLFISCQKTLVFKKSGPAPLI
T1 sequence (P31652 whole entry): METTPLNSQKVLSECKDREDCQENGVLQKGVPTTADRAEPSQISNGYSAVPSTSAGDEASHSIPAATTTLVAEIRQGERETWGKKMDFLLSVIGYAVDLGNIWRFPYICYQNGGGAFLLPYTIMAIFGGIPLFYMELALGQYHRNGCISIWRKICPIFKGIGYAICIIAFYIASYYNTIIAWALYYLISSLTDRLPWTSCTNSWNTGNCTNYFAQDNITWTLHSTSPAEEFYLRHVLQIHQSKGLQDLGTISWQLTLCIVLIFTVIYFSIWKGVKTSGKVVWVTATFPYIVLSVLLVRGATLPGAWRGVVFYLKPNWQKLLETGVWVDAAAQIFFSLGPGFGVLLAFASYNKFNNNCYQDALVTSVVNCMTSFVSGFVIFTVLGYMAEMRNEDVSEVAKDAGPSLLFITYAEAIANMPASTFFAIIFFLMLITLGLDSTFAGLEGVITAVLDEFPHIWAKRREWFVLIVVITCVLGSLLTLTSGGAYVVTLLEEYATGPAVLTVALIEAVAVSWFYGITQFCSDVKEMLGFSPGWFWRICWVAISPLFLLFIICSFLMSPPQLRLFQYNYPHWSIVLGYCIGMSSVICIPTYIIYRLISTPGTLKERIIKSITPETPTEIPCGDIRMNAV

Question: What does the source list for `CCCC(O)(c1ccccc1)C(COc1ccccc1)CN(C)C` (stereo not drawn) [Beispiel 2.5, 1-Dimethylamino-2-phenoxymethyl-3-phenyl-hexanol-(3) Hydrochlorid]?
Answer: pIC50 [1]: 7.89; pIC50 [2, 3]: 7.43

Question: How did the pIC50 [1] turn out when `CN(C)CC(COc1ccc(Br)cc1)C(O)c1ccccc1` (stereo not drawn) [Beispiel 1.4, 2-(4-Bromphenoxymethyl)-1-dimethylamino-3-phenylpropanol-(3) Hydrochlorid] was run?
Answer: 7.77

Question: What about the pIC50 [2, 3] of the same molecule?
Answer: 7.14

Question: `CCOC(=O)OC(c1ccccc1)C(COc1ccccc1)CN(C)C` (stereo not drawn) [Beispiel 5.3, 1-Dimethylamino-3-ethoxycarbonyloxy-2-phenoxymethyl-3-phenyl-propan Hydrochlorid] was tested. Which pIC50 [1] did it give?
Answer: 7.70

Question: What about the pIC50 [2] of the same molecule?
Answer: 6.52

Question: Which results are given for `CN(C)CC(COc1ccc(Cl)cc1)C(O)c1ccccc1` (stereo not drawn) [Beispiel 1.2, 2-(4-Chlorphenoxymethyl)-1-dimethylamino-3-phenyl-propanol-(3)]?
Answer: pIC50 [1]: 6.74; pIC50 [2, 3]: 7.70

Question: `C=CC(O)(c1ccccc1)C(COc1ccccc1)CN(C)C` (stereo not drawn) [Beispiel 2.12, l-Dimethylamino-2-phenoxymethyl-3-phenyl-pent-4-enol-(3) Hydrochlorid] was tested. Which pIC50 [1] did it give?
Answer: 7.00

Question: And the pIC50 [2, 3]?
Answer: 7.16

Question: How did the pIC50 [1] turn out when `CN(C)CC(COc1ccc(Cl)cc1)C(C)(O)c1ccccc1` (stereo not drawn) [Beispiel 2.8, 2-(4-Chlorphenoxymethyl)-1-dimethylamino-3-phenyl-butanol-(3) Hydrochlorid] was run?
Answer: 6.80

Question: And the pIC50 [2, 3]?
Answer: 8.42

Question: With `CN(C)CC(COc1ccccc1)C(O)c1ccccc1` (stereo not drawn) [Beispiel 1, 1-Dimethylamino-2-phenoxymethyl-3-phenyl-propanol-(3)] as the molecule, how does the pIC50 [1] read?
Answer: 8.28

Question: What about the pIC50 [2, 3] of the same molecule?
Answer: 6.72

Question: Which results are given for `CN(C)CC(COc1ccccc1)C(O)(c1ccccc1)c1ccccc1` (stereo not drawn) [Beispiel 2.2, 1-Dimethylamino-3,3-diphenyl-2-phenoxymethyl-propanol-(3)]?
Answer: pIC50 [1]: 7.03; pIC50 [2, 3]: 6.70

Question: How did the pIC50 [1] turn out when `CN(C)CC(COc1ccccc1)C(C)(O)c1ccccc1` (stereo not drawn) [Beispiel 2.4, 1-Dimethylamino-2-phenoxymethyl-3-phenyl-butanol-(3) Hydrochlorid] was run?
Answer: 7.44

Question: And the pIC50 [2, 3]?
Answer: 7.18

Question: `C=CCOC(c1ccccc1)C(COc1ccccc1)CN(C)C` (stereo not drawn) [Beispiel 6, 3-Allyloxy-1-dimethylamino--2-phenoxymethyl-3-phenyl-propan] was tested. Which pIC50 [1] did it give?
Answer: 7.77

Question: And the pIC50 [2]?
Answer: 7.25

Question: How did the “absolute Wirkstärke bei der Hemmung der Noradrenalin-Aufnahme” value [1] turn out when `CC(=O)OC(c1ccccc1)C(COc1ccccc1)CN(C)C.Cl` (stereo not drawn) [Beispiel 5, 3-Acetoxy-1-dimethylamino-2-phenoxymethyl-3-phenylpropan Hydrochlorid] was run?
Answer: 8 -fach

Question: And the pIC50 [1]?
Answer: 8.77

Question: And the pIC50 [2]?
Answer: 6.40

Question: `CCC(O)(c1ccccc1)C(COc1ccc(Cl)cc1)CN(C)C` (stereo not drawn) [Beispiel 2.7, 2-(4-Chlorphenoxymethyl)-1-dimethylamino-3-phenyl-pentanol-(3) Hydrochlorid] was tested. Which pIC50 [1] did it give?
Answer: 6.82

Question: And the pIC50 [2, 3]?
Answer: 8.51

Question: With `CN(C)CC(COc1ccc(Cl)cc1)C(O)(c1ccccc1)c1ccccc1` (stereo not drawn) [Beispiel 2.3, 2-(4-Chlorphenoxymethyl)1-dimethylamino-3,3-diphenyl-propanol-(3)] as the molecule, how does the pIC50 [1] read?
Answer: 7.03

Question: And the pIC50 [2, 3]?
Answer: 7.59

Question: Which results are given for `CCC(O)(c1ccccc1)C(COc1ccc(Cl)cc1)CN(C)C` (stereo not drawn) [Beispiel 2.9, 2-(4-Chlorphenoxymethyl)-1-dimethylamino-3-phenyl-pentanol-(3) Hydrochlorid]?
Answer: pIC50 [1]: 7.17; pIC50 [2, 3]: 7.00

Question: How did the pIC50 [1] turn out when `CCC(O)(c1ccccc1)C(COc1ccccc1)CN(C)C` (stereo not drawn) [Beispiel 2, 1-Dimethylamino-3-phenyl-2-phenoxymethyl-pentanol-(3) Hydrochlorid] was run?
Answer: 7.96

Question: What about the pIC50 [2, 3] of the same molecule?
Answer: 7.60

Question: For `CN(C)CC(CSc1ccccc1)C(O)c1ccccc1` (stereo not drawn) [Beispiel 1.6, 1-Dimethylamino-3-phenyl-2-thiophenoxymethyl-propanol-(3)], which “absolute Wirkstärke bei der Hemmung der Noradrenalin-Aufnahme” value [1] is on record?
Answer: 8 -fach

Question: What about the pIC50 [1] of the same molecule?
Answer: 8.77

Question: And the pIC50 [2, 3]?
Answer: 7.19

Question: With `CCCC(O)(c1ccccc1)C(COc1ccc(Cl)cc1)CN(C)C` (stereo not drawn) [Beispiel 2.6, 2-(4-Chlorphenoxymethyl)-1-dimethylamino-3-phenyl-hexanol-(3) Hydrochlorid] as the molecule, how does the pIC50 [1] read?
Answer: 6.70

Question: What about the pIC50 [2, 3] of the same molecule?
Answer: 8.44

Question: With `CCCCCCCCC(O)(c1ccccc1)C(COc1ccccc1)CN(C)C` (stereo not drawn) [Beispiel 2.10, 1-Dimethylamino-2-phenoxymethyl-3-phenyl-undecanol-(3)] as the molecule, how does the pIC50 [1] read?
Answer: 7.42

Question: What about the pIC50 [2, 3] of the same molecule?
Answer: 7.31

Question: How did the pIC50 [2, 3] turn out when `CN(C)CC(COc1ccccc1)C(O)c1ccc(F)cc1` (stereo not drawn) [Beispiel 1.3, 1-Dimethylamino-3-(4-fluorphenyl)-2-phenoxymethyl-propanol-(3) Hydrochlorid] was run?
Answer: 6.31

Question: How did the pIC50 [1] turn out when `CCCCCCCCCCCCC(O)(c1ccccc1)C(COc1ccccc1)CN(C)C` (stereo not drawn) [Beispiel 2.11, 1-Dimethylamino-2-phenoxymethyl-3-phenyl-pentadecanol-(3)] was run?
Answer: 6.30

Question: What about the pIC50 [2, 3] of the same molecule?
Answer: 6.52

Question: How did the pIC50 [1] turn out when `COc1ccc(OCC2CN(C)CCC2c2ccccc2)cc1` (stereo not drawn) [Femoxetin, reference compound] was run?
Answer: 6.48

Reference: patent publication EP0109623A1, “Phenyl-propanol amines, their preparation and use” (BASF Aktiengesellschaft, priority 1982, dated 1984)
